Results from patent US20130184223A1, “METHODS AND COMPOSITIONS RELATED TO MODULATING AUTOPHAGY” (UNIVERSITY OF ROCHESTER, priority 2010, published 2013).
Read-outs that look alike come from different tables or passages of the source.

Columns and labels:
[1] = system: YAMC, mp53, Ras and mp53/Ras transformed cells; assay: Immunoblot of autophagy markers p62 and LC3 after drug treatment; assay type: cell-based, murine; details: 10 mM 3-methyladenine (3MA) for 24 hrs
Experimental: To identify if the p62 degradation and LC3 conversion is specifically due to autophagy YAMC, mp53, Ras, and mp53/Ras cells were treated with 3-methyladenine, a specific pharmacologic inhibitor of autophagosome formation (FIG. 4.3).
YAMC, vector, mp53, Ras, and mp53/Ras cells were cultured for two days at 39 C in RPMI with 10% FBS medium and gentamicin in collagen-I coated 15 cm dishes. […] Protein concentration was quantified using Bradford reagent (BioRad) and a Genesys 1 0UV spectrophotometer (Spectronic Unicam). […] Proteins were detected with primary antibodies at the following dilutions in PBST with 5% milk at 4 C overnight: HA-tagged Plac8 —1:1000 dilution of HA antibody (Roche), —Tubulin—1:1000 of—Tubulin antibody (Santa Cruz), Plac8 —1:500 of Plac8 antibody (PRF&L, Inc.), Lamp2 —1:5000 of Lamp2 antibody (Abcam), Rab7 —1:1000 Rab7 antibody (Sigma), LC3 —1:2000 of LC3B antibody (Sigma), RhoA—1:1000 RhoA antibody (Santa Cruz), Cathepsin D—1:1000 Cathepsin D antibody (Santa Cruz), p62 —1:5000 of p62 antibody (PROGEN), 3× Flag-tagged proteins—1:1000 dilution of 3× Flag antibody and 1:2500 of HRP-conjugated 3× Flag antibody (Sigma), Rab5a—1:1000 dilution of Rab5 antibody (Abcam), phosphop70S6K (Thr389)—1:1000 dilution of phospho-p70S6K (Thr389) antibody (Cell Signaling), p70S6K—1:1000 dilution of p70S6K antibody (Cell Signaling), Atg12—1:250 Atg12 antibody (Sigma). […]

[2] = system: lymphoma, colon cancer, lung cancer, and pancreatic cancer cells; details: prior studies referred to in the text, cited from earlier work
[3] = system: mp53/Ras transformed cells and CAPAN-2 cells; assay: Immunocompromised mouse tumorigenicity assay, cells expressing autophagy modulators; assay type: in vivo; details: cells expressing the protein or shRNA vs vector control; 5×10^5 cells per injection; 4 weeks mp53/Ras, 5 weeks CAPAN-2
Experimental: To determine whether cooperative up-regulation of autophagy is required for tumorigenesis Atg12, a gene involved in autophagosome formation, was knocked-down using two independent constructs in mp53/RasV12 and Capan-2 cells. In addition, a genetic rescue experiment was performed by introducing a shRNA resistant form of ATG12 into these cell backgrounds to test for ATG12 specificity of the observed effects. Tumor formation was inhibited by Atg12 KD in both mp53/Ras and CAPAN-2 cell lines and was rescued by expression of the exogenous shRNA resistant Atg12 (FIG. 4.5a, 4.5c).
Cells were cultured on 15 cm dishes for two days without selective antibiotics at 39 C for mp53/Ras cells and at 37 C for HT-29, CAPAN-2, PANC-1, and 5 Panc10.05. Cells were plated at the following densities: mp53/Ras—7.5×10^5, HT-29 —1.5×10^6, CAPAN-2 —4×10^6, PANC—4×10^6, and PANC 10.05—2×10^6. Cells were trypsinized, counted and re-suspended in RPMI medium lacking supplements for mp53/Ras, CAPAN-2, and Panc10.05, and DMEM lacking supplements for HT-29 and PANC-1 at a density of 5×10^5/100 ul for mp53/Ras and CAPAN-2 cells, 1.25×10^5/100 ul for HT-29 cells, 5×10^6/100 ul for PANC-1, 2×10^6/100 ul for Panc10.05. […] Tumor volume was measured every week for 4 weeks for mp53/Ras and HT-29 cells, 5 weeks for CAPAN-2 cells, and 6 weeks for PANC-1.

[4] = system: mp53/Ras transformed cells and CAPAN-2 cells; assay: Immunoblot of p62 and LC3 in cells expressing autophagy modulators; assay type: cell-based; details: cells expressing the protein vs vector control
Description: Thus, the effects of Plac8 KD on both tumor formation and autophagy can be suppressed by constitutive activation of Rab7.
Moreover, the molecular machinery employed in autophagosomal/lysosomal fusion, such as Rab7, is required for endosomal/lysosomal fusion, which is also required for tumor formation in some cancers.
To determine if the Plac8 KD-induced loss of tumor formation is specifically due to a loss of autophagy completion, Atg12, a gene required for autophagosomal formation, was overexpressed in Plac8 KD cells.
YAMC, vector, mp53, Ras, and mp53/Ras cells were cultured for two days at 39 C in RPMI with 10% FBS medium and gentamicin in collagen-I coated 15 cm dishes. HT-29, CAPAN-2, PANC-1 and Panc 10.05 cells were cultured for two days at 37 C in maintenance media without selective antibiotics on 15 cm dishes. […] Protein concentration was quantified using Bradford reagent (BioRad) and a Genesys 1 0UV spectrophotometer (Spectronic Unicam). […]

[5] = system: mp53/Ras transformed cells; assay: Lamp2/GFP-LC3 colocalization (autophagosomal/lysosomal fusion), mp53/Ras cells; assay type: cell-based, murine; details: nutrient starved in HBSS 15 minutes
Description: The Plac8 KD dependent accumulation of autophagosomes and autophagosomal biochemical markers can be due to an induction of autophagosome formation (on-rate) or inhibition in autophagosome clearance via autophagosomal/lysosomal fusion (off-rate). […] To explore if Plac8 is required for autophagosomal/lysosmal fusion a GFP-LC3 fusion protein was expressed to label autophagosomes and immunostained for Lamp2, a lysosomal marker. Co-localization of GFP-LC3 and Lamp2 indicates the formation of an autolysosome, or the completion of autophagosomal/lysosomal fusion.
Cells were plated onto collagen-1 coated 22 mm glass coverslips (BD Biosciences) in 6 well plates at 5×10^4 cells per well. […] Cells were analyzed and imaged using a Leica inverted confocal microscope (Lieca).
GFP-LC3 expressing cells were fixed, stained, mounted, and imaged by the methods described in previous section titled Immunofluorescent staining of cells. To quantify GFP-LC3 punctae images were analyzed using the ImageJ plug-in Watershed Segmentation. […] The resulting image was quantified by measuring the mean green and blue signals per image and dividing the blue signal by the total green signal to get the amount of punctae per total GFP-LC3 expressed in the cell. […] To quantify GFP-LC3 colocalization images were analyzed using the ImageJ plug-in Colocalization Finder. […]

Cn1cnc(N)c2ncnc1-2 [3-methyladenine]
p62 and LC3 protein levels [1]: p62 and LC3-I increase | p62 and LC3 protein levels ([1]; listed as 3MA): Accumulation of p62 and LC3

CO/C1=C\C(C)=C\[C@@H](C)[C@@H](O)[C@@H](C)C/C(C)=C/C=C/[C@H](OC)[C@@H]([C@@H](C)[C@@H](O)[C@H](C)[C@@]2(O)C[C@@H](O)[C@H](C)[C@@H](C(C)C)O2)OC1=O [Bafilomycin A1]
tumor formation / tumor growth [2]: inhibits tumor growth | tumor formation / tumor growth ([2]; listed as bafilomycin A1): tumor inhibitory | tumor formation / tumor growth ([2]; listed as baflomycin A1): effective at inhibiting tumor formation

Rab7 DN: 3× Flag-tagged Rab7 T22N dominant negative mutant, inhibits autophagosomal/lysosomal fusion
tumor formation in nude mice [3]: inhibition of tumor formation | p62 and LC3 protein levels [4]: accumulation of p62 and LC3 | inhibition of GFP-LC3/Lamp2 colocalization [5]: 74%

Rab7 DA: 3× Flag-tagged Rab7 Q67L dominant active mutant, activates autophagosomal/lysosomal fusion
tumor formation in nude mice [3]: inhibits tumor formation
